Measurements published in patent US20150315188A1, “COMPOUNDS AND METHODS FOR TREATMENT OF HYPERTENSION” (MEDIVATION TECHNOLOGIES, INC., priority 2012, published 2015).

What was measured:
[1] = target: T1, Human adrenergic α2A receptor (Homo sapiens, UniProt P08913); experiment: Radioligand binding, adrenergic α2A (Protocol Group B); set-up: purchased Milipore (Millipore); details: Protocol Group B; for inhibition at 0.1 µM / Percentage inhibition of ligand binding, Adrenergic α2A (0.1 μM): 0.1 μM compound; for inhibition at 0.1 µM: read-out: Percentage inhibition of ligand binding, Adrenergic α2A (0.1 μM); for inhibition at 0.3 µM / Percentage inhibition of ligand binding, Adrenergic α2A (0.3 μM): 0.3 μM compound; for inhibition at 0.3 µM: read-out: Percentage inhibition of ligand binding, Adrenergic α2A (0.3 μM); for Ki: estimated Ki
T1 sequence (P08913 1-465): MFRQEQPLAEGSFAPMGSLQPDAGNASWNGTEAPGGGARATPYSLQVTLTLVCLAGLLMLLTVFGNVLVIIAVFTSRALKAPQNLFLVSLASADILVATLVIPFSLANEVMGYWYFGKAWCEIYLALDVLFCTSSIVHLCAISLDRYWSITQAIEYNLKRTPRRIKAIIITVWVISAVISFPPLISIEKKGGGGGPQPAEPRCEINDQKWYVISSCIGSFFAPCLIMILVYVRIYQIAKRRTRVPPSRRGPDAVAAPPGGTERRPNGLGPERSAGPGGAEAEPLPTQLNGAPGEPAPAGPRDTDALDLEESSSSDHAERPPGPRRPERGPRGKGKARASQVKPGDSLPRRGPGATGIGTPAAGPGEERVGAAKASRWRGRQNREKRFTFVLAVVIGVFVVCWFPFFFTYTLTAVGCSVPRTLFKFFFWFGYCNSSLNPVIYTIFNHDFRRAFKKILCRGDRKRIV
Method in brief: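 Membranes from recombinant cells expressing the receptor, in 50 mM Tris-HCl pH 7.4 with 5 mM MgCl2, 1 mM CaCl2, 0.2% BSA; compounds incubated with 2 nM [^3H]MK-912 for 60 min at 25° C. Nonspecific binding defined by 10 μM rauwolscine; filtration, counting; percent inhibition of specific binding, or estimated Ki.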

[2] = target: T2, Human adrenergic α1B receptor (Homo sapiens, UniProt P35368); experiment: Radioligand binding, adrenergic α1B (Protocol Group B); set-up: purchased Milipore (Millipore); details: Protocol Group B; for Percentage inhibition of ligand binding, Adrenergic α1B (0.1 μM) / inhibition at 0.1 µM: 0.1 μM compound; for inhibition at 0.3 µM / Percentage inhibition of ligand binding, Adrenergic α1B (0.3 μM): 0.3 μM compound; for inhibition at 0.3 µM: read-out: Percentage inhibition of ligand binding, Adrenergic α1B (0.3 μM); for Ki: estimated Ki; for inhibition at 0.1 µM: read-out: Percentage inhibition of ligand binding, Adrenergic α1B (0.1 μM)
T2 sequence (P35368 1-520): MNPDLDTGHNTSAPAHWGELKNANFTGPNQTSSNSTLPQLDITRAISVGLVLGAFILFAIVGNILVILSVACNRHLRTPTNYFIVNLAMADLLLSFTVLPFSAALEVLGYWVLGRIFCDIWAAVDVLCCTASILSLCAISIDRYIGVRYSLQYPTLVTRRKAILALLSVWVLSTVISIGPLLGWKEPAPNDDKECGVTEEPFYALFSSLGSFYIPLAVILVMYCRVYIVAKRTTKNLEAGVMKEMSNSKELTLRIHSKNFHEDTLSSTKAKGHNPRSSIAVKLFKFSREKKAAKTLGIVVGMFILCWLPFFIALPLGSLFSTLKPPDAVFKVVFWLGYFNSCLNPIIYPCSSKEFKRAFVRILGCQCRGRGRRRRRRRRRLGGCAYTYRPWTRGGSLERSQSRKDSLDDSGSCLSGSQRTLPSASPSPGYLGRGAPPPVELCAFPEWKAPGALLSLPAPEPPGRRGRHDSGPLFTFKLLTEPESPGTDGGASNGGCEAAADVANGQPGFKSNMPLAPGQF
Method in brief: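 Recombinant human α1B membranes incubated with test compound and 0.3 nM [3H]prazosin, 60 min at 25 °C, in 50 mM Tris-HCl pH 7.4, 10 mM MgCl2, 1 mM EDTA; nonspecific binding with 10 μM prazosin. Filter-bound radioactivity counted; values are % inhibition of specific binding or estimated Ki.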

[3] = target: T3, Human adrenergic α2B receptor (Homo sapiens, UniProt P18089); experiment: β-Arrestin GPCR functional assay, adrenergic α2B (Protocol B); format: cell-based; details: β-arrestin, antagonist vs nor-epinephrine EC80; read-out: IC50 Adrenergic α2B
T3 sequence (P18089 1-450): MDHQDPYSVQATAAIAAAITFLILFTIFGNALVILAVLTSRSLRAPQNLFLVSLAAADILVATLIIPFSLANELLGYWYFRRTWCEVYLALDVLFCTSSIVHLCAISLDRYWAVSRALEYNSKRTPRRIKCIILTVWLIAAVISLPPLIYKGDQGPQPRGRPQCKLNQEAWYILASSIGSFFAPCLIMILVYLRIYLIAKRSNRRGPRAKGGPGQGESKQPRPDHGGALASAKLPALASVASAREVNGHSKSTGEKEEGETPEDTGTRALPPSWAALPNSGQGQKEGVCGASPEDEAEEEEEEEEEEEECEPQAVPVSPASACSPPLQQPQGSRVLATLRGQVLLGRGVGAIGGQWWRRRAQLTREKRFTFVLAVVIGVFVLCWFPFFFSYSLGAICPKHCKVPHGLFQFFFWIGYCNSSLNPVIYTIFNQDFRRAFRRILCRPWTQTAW
Method in brief: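 CHO cells overexpressing human α2B (PathHunter β-arrestin), 12,000 per well, 24 h at 37° C; compounds in 1% DMSO 30 min, then 50 nM norepinephrine (EC80) 90 min at 37° C.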

Row | inhibition at 0.1 µM [1] | inhibition at 0.3 µM [1] | Ki [1] | Percentage inhibition of ligand binding, Adrenergic α1B (0.1 μM) [2] | inhibition at 0.3 µM [2] | Ki [2] | IC50 [3] | Percentage inhibition of ligand binding, Adrenergic α2A (0.1 μM) [1] | Percentage inhibition of ligand binding, Adrenergic α2A (0.3 μM) [1] | Percentage inhibition of ligand binding, Adrenergic α1B (0.3 μM) [2] | inhibition at 0.1 µM [2] | SMILES
1 | 80% | 89% | 13 nM | 75% | 90% | 11.4 nM | 16 nM | – | – | – | – | CC(O)(Cn1c2c(c3cc(Cl)cc(F)c31)C1CCCN1CC2)c1ccncc1 (single isomer, unassigned) [52a]
2 | – | – | 21.7 nM | 35% | – | 39.8 nM | 49 nM | 72% | 78% | 73% | – | CC(O)(Cn1c2c(c3cc(Cl)cc(F)c31)C1CCCN1CC2)c1ccncc1 (single isomer, unassigned) [52b]
3 | 84% | 91% | 10 nM | – | 91% | 16 nM | 67 nM | – | – | – | 69% | Cc1ccc2c(c1)c1c(n2CC(OCC2CCC2)c2ccncc2)CCN(C)C1 (single isomer, unassigned) [59a]
4 | – | – | – | −1% | – | – | 17 nM | 3% | 22% | 12% | – | Cc1cc(F)cc2c3c(n(CC(C)(O)c4cccnc4)c12)CCN1CCCC31 (single isomer, unassigned) [75a]
5 | 55% | 74% | 47.6 nM | – | 57% | – | 34 nM | – | – | – | 28% | Cc1cc(F)c2c(c1)c1c(n2CC(C)(O)c2cccnc2)CCN2CCCC12 (single isomer, unassigned) [79b]
6 | 71% | 90% | 19.6 nM | 72% | 89% | 14.6 nM | 16 nM | – | – | – | – | Cc1cc(F)c2c(c1)c1c(n2CC(C)(O)c2ccncc2)CCN2CCCC12 (single isomer, unassigned) [81a]
7 | 81% | 91% | 8.8 nM | – | 81% | 20.9 nM | 16.4 nM | – | – | – | 59% | Cc1cc(Cl)c2c(c1)c1c(n2CC(C)(O)c2ccncc2)CCN2CCCC12 (single isomer, unassigned) [91a]
8 | – | – | 28.4 nM | 43% | – | 38.2 nM | 18.7 nM | 67% | 86% | 68% | – | Cc1cc(Cl)c2c(c1)c1c(n2CC(C)(O)c2ccncc2)CCN2CCCC12 (single isomer, unassigned) [91b]
9 | – | 77% | 66.1 nM | – | 92% | 23 nM | 53.1 nM | 57% | – | – | 71% | OC(Cn1c2c(c3cc(Cl)cc(F)c31)C1CCCN1CC2)c1ccncc1 (single isomer, unassigned) [135a]
10 | – | – | 3.1 nM | 64% | – | – | 9.27 nM | 79% | 84% | 81% | – | OC(Cn1c2c(c3cc(Cl)cc(F)c31)C1CCCN1CC2)c1ccncc1 (single isomer, unassigned) [135b]
11 | – | 87% | 14.4 nM | – | 70% | 14.7 nM | 10.6 nM | 69% | – | – | 31% | Cc1cc(F)cc2c3c(n(CC(O)c4ccncc4)c12)CCN1CCCC31 (single isomer, unassigned) [136a]
12 | – | – | 43.6 nM | – | 85% | 15 nM | 41.3 nM | 56% | 79% | – | 58% | Cc1cc(F)c2c(c1)c1c(n2CC(O)c2ccncc2)CCN2CCCC12 (single isomer, unassigned) [137a]
13 | – | – | 2.4 nM | 74% | – | 7.3 nM | 6.57 nM | 94% | 102% | 94% | – | Cc1cc(F)c2c(c1)c1c(n2CC(O)c2ccncc2)CCN2CCCC12 (single isomer, unassigned) [137b]
14 | 91% | 88% | 2.2 nM | 84% | 88% | 2.4 nM | 17.2 nM | – | – | – | – | Cc1ccc2c(c1)c1c(n2CC(OCC2CCC2)c2ccncc2)CCN2CCCC12 (single isomer, unassigned) [138a]
15 | – | – | 9.9 nM | 57% | – | 14 nM | 20.6 nM | 82% | 84% | 80% | – | Cc1ccc2c(c1)c1c(n2CC(OCC2CCC2)c2ccncc2)CCN2CCCC12 (single isomer, unassigned) [138b]
16 | – | – | 10.6 nM | 47% | – | 42.7 nM | 12 nM | 81% | 93% | 79% | – | Cc1cc(F)c2c(c1)c1c(n2CC(C)(O)c2cccnc2)CCN2CCCC12 (stereo not drawn) [Compound No. 79a]
